Assay results as given in patent US8680052B1, “Methods of treating, reducing the incidence of, and/or preventing ischemic events” (The Medicines Company, priority 2013, dated 2014).

Key:
[1] = target: T1, P2Y12 receptor (Homo sapiens, UniProt Q9H244); experiment: Example 2 substudy: platelet function by VerifyNow P2Y12 Assay; format: in vivo
T1 construct: from tissue; host or cells: platelets in whole blood of patients
Protocol: Platelet function parameters were measured using the VerifyNow® P2Y12 Assay (Accumetrics, San Diego, Calif.). Samples were taken before study drug administration, at approximately 2 hours (during cangrelor/placebo infusion), and 10 hours or next day following randomization.

[2] = system: platelets; experiment: Example 4: light transmission aggregometry (LTA) induced by 5 and 20 μM ADP; format: in vivo, human
Protocol: The study involved 12 patients who met the criteria of being 18-75 years of age, having coronary artery disease (CAD) documented by a previous MI or coronary revascularization, and taking 81 mg of aspirin daily. […] Prohibited concomitant medications included strong and potent CYP3A inhibitors, simvastatin and lovastatin at doses more than 40 mg/day, omeprazole or esomeprazole, and digoxin. Use of non-steroidal anti-inflammatory agents was discouraged during study participation but not prohibited.
Each patient was administered a 30 μg/kg bolus of cangrelor followed immediately by a 2 hr infusion at a rate of 4.0 μg/kg/min. A loading dose of ticagrelor (180 mg) was given after 0.5 hr or 1.25 hr (n=6 for each). Blood for pharmacodynamic platelet function studies was taken after 0.5 or 1.25 hr (corresponding to the time of ticagrelor load, n=6 for each), and then at 1.75, 2, 2.25, 2.5, 2.75, 3, 4, and 5.25 hr. Patients were assigned randomly to receive either 6 (n=6) or 7 (n=6) doses of ticagrelor to be taken every 12 hours following the discontinuation of the infusion of cangrelor. On study day 5, each patient was administered a 30 μg/kg bolus of cangrelor followed immediately by a 2 hr infusion at a rate of 4.0 μg/kg/min. Blood for pharmacodynamic assessment was taken after 1 and 2 hr. Adverse events were queried throughout study participation that ended with a telephone interview performed on study day 10-12.
Pharmacodynamic assessment included light transmission aggregometry (LTA), VerifyNow® P2Y12 assay, vasodilator-stimulated phosphoprotein (VASP) index, and platelet activation measured with the use of flow cytometry. Assessment of LTA, VerifyNow®, and platelet activation with the use of flow cytometry was performed within 30 min of blood being taken. In the case of flow cytometry, samples were processed to fixation and then batched for analysis. For VASP, index samples were batched and processed as recommended by the vendor within 2 h of blood being taken. This approach limited the time from fixation of VASP index to flow analysis to less than 1 h.
LTA induced by 5 μM and 20 μM adenosine diphosphate (ADP) was quantified ex vivo (i.e. in non-adjusted platelet rich plasma). Platelet-poor plasma was set as 100% aggregation, and both maximal (peak) and terminal (at 300 s) aggregation were measured with a PAP4 aggregometer (BioData, Horsham, Pa.). VerifyNow® P2Y12 assay (Accumetrics Inc, San Diego, Calif.) that measures the effects of drugs on the P2Y12 receptor by activating platelets with prostaglandin El in addition to ADP was used in accordance with the instructions provided by the manufacturer. Platelet reactivity was expressed in P2Y12 reaction units (PRU). Activation of platelets was identified with the use of flow cytometry as previously described.^17. And to determine the VASP index, a commercially available kit (Diagnostica Stago, Inc, Parsippany NJ) was used. ^17 Schneider D J, Sobel B E. Streamlining the design of promising clinical trials: in-vitro testing of antithrombotic regimens and multiple agonists of platelet activation. Coron Artery Dis. 2009; 20:175-8.

[3] = 12-24 hours after discontinuation of the cangrelor infusion
[4] = during the study drug infusion (approx. 2 hours)
[5] = Study Day 1, 1.75 h, Ticagrelor at 0.5 hr
[6] = Study Day 1, 1.75 h, Ticagrelor at 1.25 hr
[7] = Study Day 1, 2.0 h, Ticagrelor at 0.5 hr
[8] = Study Day 1, 2.0 h, Ticagrelor at 1.25 hr
[9] = Study Day 1, reference 0.5/1.25 h, All
[10] = Study Day 1, reference 0.5/1.25 h, Ticagrelor at 0.5 hr
[11] = Study Day 1, reference 0.5/1.25 h, Ticagrelor at 1.25 hr
[12] = Study Day 5, 1.0 h, Ticagrelor 6 doses
[13] = Study Day 5, 1.0 h, Ticagrelor 7 doses
[14] = Study Day 5, 2.0 h, Ticagrelor 6 doses
[15] = Study Day 5, 2.0 h, Ticagrelor 7 doses

T1 sequence (Q9H244 whole entry): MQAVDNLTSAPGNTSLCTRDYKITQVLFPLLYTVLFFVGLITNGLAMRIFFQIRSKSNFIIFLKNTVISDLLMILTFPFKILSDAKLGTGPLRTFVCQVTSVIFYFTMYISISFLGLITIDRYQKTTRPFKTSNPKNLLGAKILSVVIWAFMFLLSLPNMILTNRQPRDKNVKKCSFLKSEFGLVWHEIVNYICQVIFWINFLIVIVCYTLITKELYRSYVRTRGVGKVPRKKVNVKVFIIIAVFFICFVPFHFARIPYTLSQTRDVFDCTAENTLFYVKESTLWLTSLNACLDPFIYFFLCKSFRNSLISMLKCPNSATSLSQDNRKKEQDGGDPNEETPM

CSCCNc1nc(SCCC(F)(F)F)nc2c1ncn2[C@@H]1O[C@H](COP(=O)(O)OP(=O)(O)C(Cl)(Cl)P(=O)(O)O)[C@@H](O)[C@H]1O [Cangrelor, cangrelor]
median PRU (VerifyNow P2Y12 assay) [1, 3]: 228 PRU | median PRU (VerifyNow P2Y12 assay) [1, 4]: 93.5 PRU | IPA, 5 μM ADP, LTA ([2]; Study Day 1, 1.75 h, All): 92 ± 5% | IPA, 20 μM ADP, LTA ([2]; Study Day 1, 1.75 h, All): 97 ± 2% | PR, 5 μM ADP, LTA ([2]; Study Day 1, 1.75 h, All): 3.4 ± 2.2% | PR, 20 μM ADP, LTA ([2]; Study Day 1, 1.75 h, All): 2.2 ± 1.4% | IPA, 5 μM ADP, LTA [2, 5]: 92 ± 5% | IPA, 20 μM ADP, LTA [2, 5]: 97 ± 2% | PR, 5 μM ADP, LTA [2, 5]: 4.2 ± 2.4% | PR, 20 μM ADP, LTA [2, 5]: 2.3 ± 1.0% | IPA, 5 μM ADP, LTA [2, 6]: 93 ± 6% | IPA, 20 μM ADP, LTA [2, 6]: 97 ± 3% | PR, 5 μM ADP, LTA [2, 6]: 2.7 ± 1.8% | PR, 20 μM ADP, LTA [2, 6]: 2 ± 1.8% | IPA, 5 μM ADP, LTA ([2]; Study Day 1, 2.0 h, All): 92 ± 3% | IPA, 20 μM ADP, LTA ([2]; Study Day 1, 2.0 h, All): 97 ± 3% | PR, 5 μM ADP, LTA ([2]; Study Day 1, 2.0 h, All): 4.1 ± 2% | PR, 20 μM ADP, LTA ([2]; Study Day 1, 2.0 h, All): 2.3 ± 2.2% | IPA, 5 μM ADP, LTA [2, 7]: 91 ± 3% | IPA, 20 μM ADP, LTA [2, 7]: 95 ± 2% | PR, 5 μM ADP, LTA [2, 7]: 4.8 ± 1.9% | PR, 20 μM ADP, LTA [2, 7]: 3.5 ± 1.9% | IPA, 5 μM ADP, LTA [2, 8]: 93 ± 3% | IPA, 20 μM ADP, LTA [2, 8]: 98 ± 3% | PR, 5 μM ADP, LTA [2, 8]: 3.3 ± 2% | PR, 20 μM ADP, LTA [2, 8]: 1.2 ± 1.9% | IPA, 5 μM ADP, LTA [2, 9]: 93 ± 3% | IPA, 20 μM ADP, LTA [2, 9]: 98 ± 2% | PR, 5 μM ADP, LTA [2, 9]: 3.6 ± 1.8% | PR, 20 μM ADP, LTA [2, 9]: 1.7 ± 1.7% | IPA, 5 μM ADP, LTA [2, 10]: 92 ± 4% | IPA, 20 μM ADP, LTA [2, 10]: 97 ± 2% | PR, 5 μM ADP, LTA [2, 10]: 4.2 ± 2.1% | PR, 20 μM ADP, LTA [2, 10]: 2 ± 1.5% | IPA, 5 μM ADP, LTA [2, 11]: 93 ± 2% | IPA, 20 μM ADP, LTA [2, 11]: 98 ± 3% | PR, 5 μM ADP, LTA [2, 11]: 3 ± 1.4% | PR, 20 μM ADP, LTA [2, 11]: 1.3 ± 2.0% | IPA, 5 μM ADP, LTA ([2]; Study Day 5, 1.0 h, All): 96 ± 3% | IPA, 20 μM ADP, LTA ([2]; Study Day 5, 1.0 h, All): 98 ± 2% | PR, 5 μM ADP, LTA ([2]; Study Day 5, 1.0 h, All): 2.1 ± 1.7% | PR, 20 μM ADP, LTA ([2]; Study Day 5, 1.0 h, All): 1.5 ± 1.5% | IPA, 5 μM ADP, LTA [2, 12]: 96 ± 4% | IPA, 20 μM ADP, LTA [2, 12]: 98 ± 2% | PR, 5 μM ADP, LTA [2, 12]: 1.5 ± 1.6% | PR, 20 μM ADP, LTA [2, 12]: 1.5 ± 1.6% | IPA, 5 μM ADP, LTA [2, 13]: 96 ± 3% | IPA, 20 μM ADP, LTA [2, 13]: 98 ± 2% | PR, 5 μM ADP, LTA [2, 13]: 2.7 ± 1.6% | PR, 20 μM ADP, LTA [2, 13]: 1.5 ± 1.5% | IPA, 5 μM ADP, LTA ([2]; Study Day 5, 2.0 h, All): 96 ± 4% | IPA, 20 μM ADP, LTA ([2]; Study Day 5, 2.0 h, All): 98 ± 2% | PR, 5 μM ADP, LTA ([2]; Study Day 5, 2.0 h, All): 2.2 ± 2.2% | PR, 20 μM ADP, LTA ([2]; Study Day 5, 2.0 h, All): 1.3 ± 1.6% | IPA, 5 μM ADP, LTA [2, 14]: 97 ± 3% | IPA, 20 μM ADP, LTA [2, 14]: 98 ± 1% | PR, 5 μM ADP, LTA [2, 14]: 1.5 ± 1.5% | PR, 20 μM ADP, LTA [2, 14]: 1.2 ± 1.5% | IPA, 5 μM ADP, LTA [2, 15]: 95 ± 5% | IPA, 20 μM ADP, LTA [2, 15]: 98 ± 3% | PR, 5 μM ADP, LTA [2, 15]: 2.8 ± 2.7% | PR, 20 μM ADP, LTA [2, 15]: 1.5 ± 1.9% | residual reactivity, maximal ([2]; combined overall population, 0.5 h after cangrelor was stopped, ticagrelor loaded during infusion): 19% | residual reactivity ([2]; combined overall population, end of observation period (5.25 h)): < 5%

COC(=O)[C@H](c1ccccc1Cl)N1CCc2sccc2C1 [Clopidogrel, clopidogrel, reference compound]
median PRU (VerifyNow P2Y12 assay) [1, 3]: 206 PRU | median PRU (VerifyNow P2Y12 assay) [1, 4]: 277 PRU
